# According to patent publication US7947312B2, “Method of preparation and composition of a water soluble extract of the bioactive component of the plant species Uncaria for enhancing immune, anti-inflammatory, anti-tumor and DNA repair processes of warm blooded animals” (priority 2002, dated 2011):
# Columns and labels:
# [1] = tested on: HL-60 human leukemic cells; assay: In vitro cytotoxicity in HL-60 cells, MTT assay (Table 2); assay type: cell-based
# Experimental: In Table 2, the in vitro cytotoxicity of the various components were determined in HL-60 human leukemic cells using the MTT assay and calculation of IC50 values as described in detail elsewhere. Quinic acid ester content was determined by the Bartos method (Bartos, 1980). […] The quinic acid traveling between Rf=0.2-0.3 was eluted from the TLC plates with 1% aqueous ammonia and the relative quantity estimated by absorption at 200 nm as ± being less than 0.050 and “++++” denoting the highest amount detected, with a decrease in the number of “+” signs corresponding to a decrease in the amount of QA detected.
# IκBα = assay: Western blotting of IκBα and phosphorylated IκBα in LPS-stimulated 70Z/3 cells; assay type: cell-based, mouse; conditions: QA 2 mg/ml or PDTC 100 μM
# Experimental: FIGS. 5C and 5D illustrate 70Z/3 cells (5×10^6) that were pre-treated with QA (2 mg/ml) or with PDTC (100 μM) as a positive control for two hours and thereafter stimulated with LPS (25 μg/ml) for the indicated time. Cytoplasmic extracts equalized for protein concentration were analyzed by western blotting using IκBα-specific antibodies. One representative experiment out of three (FIG. 5C) and one representative experiment out of two (FIG. 5D) are presented.
# Preparation of cell extracts: The 70Z/3 cells were pretreated with QA (1 or 2 mg/ml) or with PDTC for 2 hours before they were stimulated with LPS for various time points. Whole cell extracts from the 70Z/3 cells (1×10^6) were prepared for analysis of the NF-κB signaling pathway. The cells were washed twice in PBS, resuspended in lysis buffer (75 mM Tris-HCl (pH 8.0), 100 mM NaCl, 5 mM KCl, 3 mM MgCl2, 2% NP-40, 1 mM PMSF and a protease inhibitor cocktail) (Roche Diagnostics Scandinavia AB) and incubated on ice for 10 min. The cell debris was pelleted and the supernatants were stored at −70° C. until Western Blot was performed.
# Western blotting: Cellular extracts from 70Z/3 cells were separated on a 10% SDS polyacrylamide gel and the proteins were transferred to a nylon membrane. After blocking overnight in 5% dry fat-free milk in TBST, the membrane was incubated for 2 hrs with primary antibodies specific either to IκBα or to phosphorylated IκBα (both from Cell Signaling Technology Inc, Beverly, Mass.). The membranes were thereafter washed three times in TBST, and incubated with HRP-conjugated goat anti-rabbit antibodies (Amersham Pharmacia). The membranes were washed three times and chemoluminescence was detected using the ECL-reagent (Amersham Pharmacia) and x-ray film (CEA AB, Strängnäs, Sweden).
# [2] = Acid and base hydrolysis of QAL and QA measured by Bartos reaction (Table 3); assay type: physicochemical; conditions: 500 μg/test
# Excerpt: To further characterize the QA analogs as the active ingredients in C-MED-100® in vitro, we determined the influence of base hydrolysis on the chemistry and biological activity of C-MED-100®. QAL is in fact a cyclic ester of QA, and as such it is an example representing the general class of QA esters. Elution from silica gel with 1% ammonia were the mandated chemical conditions necessary to remove the QA analog (i.e., active ingredient) from silica gel, which in turn favored the base hydrolysis of QA esters such as QAL to QA. If so, then identification of QA after base hydrolysis from the elution of silica gel, would then be consistent with the natural occurrence in C-MED-100® of a QA ester at Rf=0.2-0.3. […] It is quite clear that either strong acid or base treatment converted QAL to QA, and left only QA remaining, thus supporting the fact that the isolation of QA from C-MED-100® after base elution from silica gel was likely to have been originally present as a QA ester.
# HL-60 W6899 cells = assay: HL-60 bioassay, microculture 5 days, clonogenicity estimated by MTT assay (Table 1); assay type: cell-based, human; conditions: parameters are approximations
# Experimental: An assay of biological activity of C-MED-100®'s active ingredient is prepared as follows: HL-60 […] cells are exposed in microculture at 5000 cells per well (96-well plates) for 5 days at 37 ? C. in a CO2 incubator. After incubation, the cells are washed with saline and clonogenicity estimated by MTT assay.
# [3] = tested on: human HL-60 leukemic cells; assay: In vitro growth inhibition by QA salts in cultured HL-60 cells, MTT, 72 hr (FIG. 8); assay type: cell-based; conditions: HL-60 cells
# Experimental: QA was purchased from Sigma (>99%). QA salts were synthesized by neutralization with the appropriate base, i.e., NH4OH, NaOH, Ca(OH)2, Zn(OH)2, LiOH, KOH, lysine or histidine. Serial dilutions of test compounds were added to human HL-60 leukemic cells (0.05×10^6 cells/ml) in 96-well, flat bottomed microtiter plates to give final concentrations in the cultures up to 3000 μg/ml. The plates were incubated for 72 hr at 37 C, pulsed with 20 μl MTT (5 mg/ml) for 3 hr, and the color estimated spectrophotometrically at 540 nm as described previously. (Schweitzer, C M et al. Spectrophotometric determination of clonogenic capacity of leukemic cells in semisolid microtiter culture systems. Experimental Hematology 21: 573-578, 1993). IC50 values were calculated and compared based on the live/dead ratio of cells.
smiles,measurement,setting,value
"O=C1O[C@@H]2C[C@@]1(O)C[C@@H](O)[C@H]2O [QAL #1 batch syn., quinic acid lactone]",HL-60 MTT IC50,[1]; no base hydrolysis,1200 µg/mL
"S=C(S)N1CCCC1 [PDTC, pyrollidine dithiocarbamate, reference compound]",phosphorylation of IκBα,IκBα,potently inhibited
same,LPS-induced breakdown of IκBα,IκBα; 2 h pretreatment,inhibits both the breakdown of IκBα and its resynthesis
"O=C1O[C@@H]2C[C@@]1(O)C[C@@H](O)[C@H]2O [Quinic acid lactone, quinic acid lactone]",HL-60 MTT IC50,"[1]; no base hydrolysis, listed as QAL #2 batch syn.",>2300 µg/mL
same,HL-60 MTT IC50,"[1]; sample treated +2 M NaOH, 2 hr",1600 µg/mL
same,% Degraded (Bartos Reaction A490 nm),[2]; 1M NaOH,74.1%
same,% Degraded (Bartos Reaction A490 nm),[2]; 1N HCl,58.2%
same,Bioassay after 1% aqueous ammonia IC50 HL-60 cells,HL-60 W6899 cells; after 1% aqueous ammonia,>3000 µg/mL
same,Bioassay efficacy using IC50 in HL-60 cells,HL-60 W6899 cells,80 µg/mL
O=C([O-])C1(O)CC(O)C(O)[C@H](O)C1.[Na+] (some centres unmarked) [Quinic acid (QA) sodium salt],HL-60 MTT IC50,[1]; no base hydrolysis,1500 µg/mL
same,in vitro cytotoxicity compared to C-MED-100 (FIG. 8),[3],in vitro cytotoxicity comparable to that of C-MED-100®
